Source: patent US20200087625A1, “METHODS FOR ISOLATING, EXPANDING AND ADMINISTERING CANCER SPECIFIC CD8+ T CELLS” (priority 2017, published 2020)

Experiments:
SCC7 = SCC7 tumor model, 1V270 with systemic anti-PD-1 agent; type: in vivo, C3H mice; conditions: day 21, flow cytometry
Method: FIGS. 2A-2F. […] C3H mice (n=5-8/group) were implanted with SCC7 and carcinoma cells 1A. Tumors and spleens were harvested on day 21 and T cells in TILs or spleens were analyzed by flow cytometry. (A and B) Tumor infiltrating CD8^+ T cells were gated on CD45^+CD3^+CD8^+ populations. Number of CD8^+ T cells (A) and IFNγ^+CD8^+ cells (B) per tumor volume (mm^3) were calculated and plotted. (C) Representative immunohistochemistry images of the tumors (day 21) stained for CD8 (red) and DAPI (blue). Scale bar: 20 μm. (D) Number of IFNγ^+CD8^+ T cells in spleens. Bars indicate mean±SEM. Each dot represents an individual animal and bars indicate mean±SEM in A, B and D. P*<0.05, **P<0.01 (Kruskal-Wallis test with Dunn's post hoc test), n=5-8/group. (E) Tumor volumes at the injected sites were plotted against the log of the number of IFNγ^+CD8^+ T cells in the tumor microenvironment. […] (F) The tumor volumes (day 21, injected side) were plotted against the log of the numbers of IFNγ^+CD8^+ T cells in the spleen.
FIGS. 3A-3E. […] (A-D) SCC7-bearing mice (n=4/group) were treated as described in FIG. 2. Tumors and spleens were harvested on day 21 and CD8^+ T cells were isolated using MACSMicroBead. RNA was isolated and next-generation sequencing was performed. (A) Representative data of TCR repertoire clonality of CD8^+ T cells. […]

4T1 cells = test: Ex vivo tumor-specific cytotoxicity study; type: cell-based, BALB/c mice; conditions: effector to target cell ratio 16:1; vs vehicle
Method: FIGS. 23A-23G. Systemic administration of […] induces tumor-specific CD8^+ T cells. (A) Protocol of IV metastasis model. (B) BALB/c mice (n=B-15/group) were i.v. injected with 4T1 cells (2×10^4) on day 0.1V270 (2, 20, or 200 μg/injection) was i.p. administered on days −1, 7, 10, and 14. The numbers of lung nodules were counted on day 21. (C) 200 μg/injection 1V270 was i.p. administered on days −1 or 0 followed by days 7, 10, and 14 where indicated. The numbers of lung nodules were counted on day 21. […] Intracellular granzyme B (D) and IFNγ (E) were analyzed by flow cytometry. […] The percent specific killing was calculated. Data were analyzed by two-way ANOVA using a Bonferroni post hoc test comparing treatment groups against vehicle group. *P<0.05. […]
Tumor-specific cytotoxicity was examined using 4T1 cells as target cells and BALB/3T3 cells as irrelevant cells. […] The frequencies of 4T1 (CFSE high) and BALB/3T3 (CFSE low) cells were determined by flow cytometry, and the percent specific killing was calculated. […]
To examine the role of CD8^+ T cells after systemic 1V270 treatment, mediastinal lymph node (mLN) cells, splenocytes, and lung tissues were analyzed in the IV metastasis model on day 21 (FIGS. 23D-2G). Activation of CD8^+ T cells was assessed by intracellular staining for granzyme B and interferon γ (IFNγ). […]

CD8+ T cells = test: TCR repertoire analysis of CD8+ T cells from TILs and spleens; type: in vivo, BALB/c mice

Compound: CCCCCCCCC=CCCCCCCCC(=O)OCC(COP(=O)(O)OCCNC(=O)c1ccc(Cn2c(=O)[nH]c3c(N)nc(OCCOC)nc32)cc1)OC(=O)CCCCCCCC=CCCCCCCCC (stereo not drawn) [1V270]
- CD8+ population in TILs (SCC7): increased CD8^+ population in TILs
- tumor-specific cytotoxicity of CD8+ T cells (4T1 cells): significantly higher tumor-specific cytotoxicity
- BUB overlap index between TILs and splenocytes (CD8+ T cells; 1V270-treated tumor-exposed vs non-tumor exposed mice): significantly higher BUB indices
- number of shared clones in TILs (CD8+ T cells; 1V270 treated tumor-exposed group vs no-tumor exposed group): eight-fold higher
- TCRα clonotypes shared by 3 or more individuals (CD8+ T cells; non-tumor group): 5
- clonality of CD8+ T cells (CD8+ T cells; secondarily challenged tumors): increased clonality of CD8^+ T cells
- TCRα clonotypes shared by 3 or more individuals (CD8+ T cells; tumor-exposed group): 31
- TCRβ clonotypes shared by 3 or more individuals (CD8+ T cells; tumor-exposed group): 11
- frequency of shared clones (CD8+ T cells; tumor-exposed vs non-tumor exposed mice): significantly higher in tumor-exposed mice than in non-tumor exposed mice
